Legend:
Leukemia 60 cell line [1] = test: Median toxic concentration of compound tested in vitro against human leukemia 60 cells; assay type: functional; details: read-out: TC50 (the source's name)
Leukemia 60 cell line [2] = test: Median growth inhibitory concentration of compound tested in vitro against human leukemia 60 cells; assay type: functional

## CCCCCCCCCCCCCCCC(O)C(CO)/N=C(\S)NCCc1ccccc1 (stereo not given)
Leukemia 60 cell line [1]
  CC50: 2370 nM
Leukemia 60 cell line [2]
  GC50: 1600 nM

## CCCCCCCCCCCCC/C=C\C(O)C(CO)/N=C(\S)NCCc1ccccc1 (stereo not given)
Leukemia 60 cell line [1]
  CC50: 2530 nM
Leukemia 60 cell line [2]
  GC50: 640 nM

## CCCCCCCCCCCCCCC[C@@H](O)[C@@H](N)CO [DIHYDROSPINGOSINE]
Leukemia 60 cell line [1]
  CC50: 2550 nM
Leukemia 60 cell line [2]
  GC50: 490 nM

## S=C=NCCc1ccccc1 [PHENETHYLISOTHIOCYANATE]
Leukemia 60 cell line [1]
  CC50: 1370 nM
Leukemia 60 cell line [2]
  GC50: 840 nM

## CCCCCCCCCCCCCC=C[C@@H](O)[C@@H](N)CO [SPHINGOSINE]
Leukemia 60 cell line [1]
  CC50: 2420 nM
Leukemia 60 cell line [2]
  GC50: 1240 nM

— ChEMBL document CHEMBL1132856, “Antitumour activity of sphingoid base adducts of phenethyl isothiocyanate” (2000)
